US7998987B2, “Inhibitors of c-Met and uses thereof” (Vertex Pharmaceuticals Incorporated, priority 2005, dated 2011)

biological target: c-Met (Homo sapiens, UniProt P08581); assay: Ki determination for the inhibition of c-Met kinase activity (standard coupled enzyme system); type: biochemical; details: not given
Procedure, shortened: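 Continuous coupled-enzyme (PK/LDH, NADH depletion) assay with 80 nM c-Met, 200 μM ATP and 10 μM polyGluTyr in 100 mM HEPES pH 7.5, 10 mM MgCl2, 1.5% DMSO at 30 °C.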

Sequence of c-Met (P08581 25-1390): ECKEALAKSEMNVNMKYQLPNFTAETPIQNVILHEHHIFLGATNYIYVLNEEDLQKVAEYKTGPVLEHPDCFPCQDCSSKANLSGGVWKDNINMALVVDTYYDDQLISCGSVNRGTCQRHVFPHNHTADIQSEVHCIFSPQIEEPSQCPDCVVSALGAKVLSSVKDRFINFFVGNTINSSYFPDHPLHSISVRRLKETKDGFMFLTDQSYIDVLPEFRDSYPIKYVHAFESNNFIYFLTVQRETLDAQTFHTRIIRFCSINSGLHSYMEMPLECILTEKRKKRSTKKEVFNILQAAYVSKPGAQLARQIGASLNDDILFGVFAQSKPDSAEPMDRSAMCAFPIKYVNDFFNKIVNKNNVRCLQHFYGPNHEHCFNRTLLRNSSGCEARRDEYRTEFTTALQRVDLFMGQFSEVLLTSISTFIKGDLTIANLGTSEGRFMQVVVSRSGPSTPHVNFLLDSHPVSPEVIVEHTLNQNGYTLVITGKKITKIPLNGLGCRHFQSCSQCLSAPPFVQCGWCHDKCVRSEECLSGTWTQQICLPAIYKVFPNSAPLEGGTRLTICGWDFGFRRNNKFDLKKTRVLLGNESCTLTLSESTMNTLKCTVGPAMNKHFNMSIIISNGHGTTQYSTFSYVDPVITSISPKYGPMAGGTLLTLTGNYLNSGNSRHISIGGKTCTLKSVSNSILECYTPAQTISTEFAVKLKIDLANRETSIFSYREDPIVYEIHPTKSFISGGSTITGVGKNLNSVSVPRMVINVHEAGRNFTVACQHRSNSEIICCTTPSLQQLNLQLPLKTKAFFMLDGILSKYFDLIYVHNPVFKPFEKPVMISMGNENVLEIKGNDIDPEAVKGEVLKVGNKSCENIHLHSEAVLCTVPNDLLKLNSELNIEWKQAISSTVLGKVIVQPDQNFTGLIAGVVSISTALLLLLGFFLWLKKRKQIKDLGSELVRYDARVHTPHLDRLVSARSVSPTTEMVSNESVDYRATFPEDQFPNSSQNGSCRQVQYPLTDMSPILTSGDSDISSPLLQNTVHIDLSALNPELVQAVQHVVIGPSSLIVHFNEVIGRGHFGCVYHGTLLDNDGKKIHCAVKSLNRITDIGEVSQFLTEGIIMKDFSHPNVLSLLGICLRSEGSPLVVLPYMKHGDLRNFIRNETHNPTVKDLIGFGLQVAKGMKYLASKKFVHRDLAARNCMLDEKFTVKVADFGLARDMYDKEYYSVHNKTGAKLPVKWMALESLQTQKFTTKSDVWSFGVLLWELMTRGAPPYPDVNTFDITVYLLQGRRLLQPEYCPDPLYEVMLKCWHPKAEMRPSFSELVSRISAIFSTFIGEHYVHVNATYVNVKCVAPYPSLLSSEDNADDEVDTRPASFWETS

Compound	Ki [nM]
C[C@@H](c1ccc(OP(=O)(O)O)cc1)c1nnc2sc(Nc3cccc(Cl)c3)nn12 [Compound 170]	100 to 2000

same assay, conditions: coupled enzyme system, 200 μM ATP, 80 nM c-Met, 30° C.; number printed instead of class symbol; read-out: c-Met Ki

Ki [nM]	Compound
100	COc1ccc(C2(c3nnc4ccc(Nc5cccc(Cl)c5)nn34)CC2)cc1 [Compound 356]

same assay, conditions: coupled enzyme system, 200 μM ATP, 80 nM c-Met, 30° C.; read-out: c-Met Ki

Compound	Ki [nM]
N#Cc1ccc(OCc2nnc3ccc(Nc4cccc(Cl)c4)nn23)c(N)c1 [Compound 430]	> 2000
Clc1cccc(Nc2ccc3nnc(COc4ccc5nonc5c4)n3n2)c1 [Compound 472]	> 2000
CCN(CC)CC(C)Nc1ccc2nnc(Cc3ccc(O)cc3)n2n1 (stereo not shown) [Compound 311]	> 2000
CC(=O)N[C@@H]1CCCC[C@@H]1Nc1ccc2nnc([C@@H](C)c3ccc(O)cc3)n2n1 [Compound 444]	100 to 2000
Oc1cccc2ccc(NCc3nnc4ccc(Nc5cccc(Cl)c5)nn34)nc12 [Compound 454]	> 2000
Clc1cccc(Nc2ccc3nnc(CNc4ccncc4)n3n2)c1 [Compound 386]	> 2000
O=C(N[C@@H](Cc1ccccc1)C1=Nn2c(Cc3ccc(O)cc3)nnc2SC1)OCc1ccccc1 [Compound 537]	> 2000
Clc1cccc(Nc2ccc3nnc(Cn4nc(Cl)c5ccccc54)n3n2)c1 [Compound 486]	> 2000
Oc1ccc(Cc2nnc3n2N=C(c2ccsc2)CS3)cc1 [Compound 541]	< 100
Fc1ccc(Cc2nnc3n2N=C(c2cccs2)CS3)cc1 [Compound 546]	100 to 2000
Oc1ccc(Cc2nnc3n2N=C(c2c[nH]c4ncccc24)CS3)cc1 [Compound 524]	100 to 2000
COCCC(=O)N[C@@H]1CCCC[C@H]1Nc1ccc2nnc([C@@H](C)c3ccc(O)cc3)n2n1 [Compound 451]	> 2000
O=C(Nc1ccc2nnc(Cc3ccc(O)cc3)n2n1)c1ccccc1 [Compound 397]	> 2000
Clc1cccc(Nc2ccc3nnc(CNc4ccc5[nH]ccc5c4)n3n2)c1 [Compound 465]	> 2000
CS(=O)(=O)Nc1cccc(Cc2nnc3ccc(Nc4cccc(Cl)c4)nn23)c1 [Compound 403]	100 to 2000
COCCC(=O)N[C@@H]1CCCC[C@@H]1Nc1ccc2nnc([C@@H](C)c3ccc(O)cc3)n2n1 [Compound 445]	> 2000
COCCC(=O)N[C@H]1CCCC[C@H]1Nc1ccc2nnc([C@@H](C)c3ccc(O)cc3)n2n1 [Compound 447]	100 to 2000
Nc1ncccc1OCc1nnc2ccc(Nc3cccc(Cl)c3)nn12 [Compound 413]	< 100
Nc1cc(C(F)(F)F)ccc1OCc1nnc2ccc(Nc3cccc(Cl)c3)nn12 [Compound 429]	> 2000

Next, values leading:

Ki [nM]	Compound
> 2000	CCOc1cccc(NCc2nnc3ccc(Nc4cccc(Cl)c4)nn23)c1 [Compound 339]
100 to 2000	C[C@@H](Nc1ccc2nnc(Cc3ccc(O)cc3)n2n1)C(C)(C)C [Compound 309]
100 to 2000	CCc1cccc(Nc2ccc3nnc(Cc4ccc(OC)cc4)n3n2)c1 [Compound 291]
> 2000	CCOc1cccc(OCc2nnc3ccc(Nc4cccc(Cl)c4)nn23)c1 [Compound 385]
100 to 2000	COc1cccc(Cc2nnc3ccc(Nc4cccc(Cl)c4)nn23)c1 [Compound 439]
> 2000	O=C(O)c1cc(O)ccc1NCc1nnc2ccc(Nc3cccc(Cl)c3)nn12 [Compound 340]
> 2000	COc1ccc(OC)c(NCc2nnc3ccc(Nc4cccc(Cl)c4)nn23)c1 [Compound 353]
> 2000	COc1cc(NCc2nnc3ccc(Nc4cccc(Cl)c4)nn23)cc(OC)c1OC [Compound 346]
100 to 2000	Oc1ccc(OCc2nnc3ccc(Nc4cccc(Cl)c4)nn23)cc1 [Compound 391]
< 100	C[C@H](c1ccc(O)cc1)c1nnc2ccc(Nc3cccc(Cl)c3)nn12 [Compound 319]
< 100	C[C@@H](c1ccc(O)cc1)c1nnc2ccc(Nc3ccnc(Cl)c3)nn12 [Compound 506]
> 2000	COc1cc(NCc2nnc3ccc(Nc4cccc(Cl)c4)nn23)c(C(C)=O)cc1OC [Compound 331]
> 2000	COc1ccc(NCc2nnc3ccc(Nc4cccc(Cl)c4)nn23)cc1O [Compound 335]
> 2000	CC(=O)Nc1ccc(OCc2nnc3ccc(Nc4cccc(Cl)c4)nn23)cc1 [Compound 469]

same assay, conditions: coupled enzyme system, 200 μM ATP, 10 μM polyGluTyr, 80 nM c-Met, 30° C.; read-out: c-Met Ki

Compound	Ki [nM]
COc1ccc(Cc2nnc3ccc(Nc4cccc(OC)c4)nn23)cc1 [Compound 242]	100 to 2000
COc1ccc(Cc2nnc3ccc(Nc4cccc(Cl)c4)nn23)cc1 [Compound 238]	< 100
Oc1ccc(Cc2nnc3ccc(N4CCC(CCc5ccccc5)C4)nn23)cc1 (stereo not shown) [Compound 205]	100 to 2000
CCC(C)Nc1ccc2nnc(Cc3ccc(O)cc3)n2n1 (stereo not shown) [Compound 278]	100 to 2000
COc1ccc(Cc2nnc3sc(C4CCCCN4)nn23)cc1 (stereo not shown) [Compound 24]	> 2000
OCc1cccc(Nc2ccc3nnc(Cc4ccc(O)cc4)n3n2)c1 [Compound 259]	< 100
O=c1ccn(Cc2nnc3ccc(-c4ccccc4)nn23)cc1 [Compound 218]	> 2000
O=C1CCCN1CCCNc1ccc2nnc(Cc3ccc(O)cc3)n2n1 [Compound 199]	> 2000
Oc1ccc(Cc2nnc3ccc(N4CCCC4c4ccc(F)cc4)nn23)cc1 (stereo not shown) [Compound 202]	> 2000
Clc1cc(Cl)cc(Nc2ccc3nnc(Cc4ccc5c(c4)OCO5)n3n2)c1 [Compound 246]	100 to 2000
COc1ccc(Cc2nnc3ccc(Nc4cccc(CO)c4)nn23)cc1 [Compound 262]	100 to 2000
Oc1ccc(Cc2nnc3ccc(NC4CCCCC4)nn23)cc1 [Compound 214]	< 100
COCC1CCCN1c1nn2c(Cc3ccc(OC)cc3)nnc2s1 (stereo not shown) [Compound 12]	> 2000

Second part, the compound after the results:

Ki [nM]	Compound
100 to 2000	Oc1ccc(Cc2nnc3ccc(NCc4cccc(F)c4)nn23)cc1 [Compound 268]
< 100	Oc1cccc2c1ccn2Cc1nnc2sc(Nc3cccc(C(F)(F)F)c3)nn12 [Compound 160]
100 to 2000	COc1ccc([C@H](C)c2nnc3sc(Nc4cccc(F)c4)nn23)cc1 [Compound 158]
100 to 2000	Oc1cccc(Cc2nnc3sc(Nc4cccc(F)c4F)nn23)c1 [Compound 123]
100 to 2000	C[C@@H](c1ccc(O)c(C(C)(C)C)c1)c1nnc2sc(Nc3cccc(F)c3)nn12 [Compound 172]
100 to 2000	Oc1ccc(Cc2nnc3sc(Nc4ccccc4Cl)nn23)cc1Cl [Compound 67]
< 100	CC(c1ccc(O)cc1)c1nnc2sc(Nc3cccc(Cl)c3)nn12 (stereo not shown) [Compound 63]
100 to 2000	Oc1ccc(Cc2nnc3sc(NCc4cccnc4)nn23)cc1 [Compound 9]
> 2000	O=C(Nc1ccc(F)cc1)Nc1nn2c(Cc3ccc(O)cc3)nnc2s1 [Compound 114]
< 100	COc1ccc(Cc2nnc3ccc(Nc4cc(F)cc(F)c4)nn23)cc1 [Compound 252]
100 to 2000	COc1ccccc1Nc1nn2c(Cc3ccc(O)c(F)c3)nnc2s1 [Compound 30]
100 to 2000	Oc1ccc(CCc2nnc3sc(Nc4cc(F)cc(F)c4)nn23)cc1 [Compound 111]
> 2000	CC(Oc1ccc2cccnc2c1)c1nnc2sc(Nc3cccc(Cl)c3)nn12 (stereo not shown) [Compound 164]
< 100	CC(C)[C@@H](N)C(=O)Oc1ccc([C@H](C)c2nnc3sc(Nc4cccc(Cl)c4)nn23)cc1 [Compound 168]
100 to 2000	COc1ccc(Cc2nnc3ccc(Nc4cccc(C(C)O)c4)nn23)cc1 (stereo not shown) [Compound 257]
< 100	Oc1ccc(Cc2nnc3sc(Nc4cccnc4)nn23)cc1 [Compound 81]
< 100	Oc1ccc(Cc2nnc3ccc(Nc4cc(F)cc(F)c4)nn23)cc1Cl [Compound 251]
100 to 2000	COc1ccc(Nc2nn3c(Cc4ccc(O)c(F)c4)nnc3s2)cc1 [Compound 64]
100 to 2000	OCCc1cccc(Nc2ccc3nnc(Cc4ccc(O)c(F)c4)n3n2)c1 [Compound 265]
< 100	Oc1ccc(Cc2nnc3sc(Nc4cc(Cl)ccc4Cl)nn23)cc1 [Compound 77]
> 2000	O=C(Nc1nn2c(Cc3ccc(O)cc3)nnc2s1)c1ccccc1 [Compound 57]
100 to 2000	COc1ccccc1Nc1nn2c(C(C)c3ccc(O)cc3)nnc2s1 (stereo not shown) [Compound 32]
100 to 2000	CNc1nn2c(Cc3ccc(O)cc3)nnc2s1 [Compound 14]
< 100	C[C@@H](c1ccc(O)cc1)c1nnc2sc(Nc3ccc(F)c(Cl)c3)nn12 [Compound 159]
> 2000	COc1cc(Cc2nnc3sc(Nc4ccccc4OC)nn23)ccc1O [Compound 33]
